Results taken from US11214803B2, “Modulators of YAP1 expression” (Ionis Pharmaceuticals, Inc., priority 2019, dated 2022).
Strand notation (5' to 3'): a small letter for the sugar, then the base; units joined by * are phosphorothioate-linked, units joined directly phosphodiester-linked; [ ] holds rarer units or linkages, { } end groups; capitals alone tell only the bases. k = constrained ethyl (cEt); [5mC] = 5-methylcytosine; d = 2'-deoxy (DNA)

Assays:
Type in all cases: cell-based, human
SNU-1066 cells = experiment: Cell proliferation assay in SNU-1066 cells, CellTiter-Glo (Example 44); conditions: free uptake, approximately 144 hours
Description: (§1) Modified oligonucleotides described in the studies above were tested at various doses in laryngeal squamous cell carcinoma line SNU-1066. A control oligonucleotide 792169, described herein above, was also tested.
Cultured SNU-1066 cells at a density of 1000 cells/well were treated using free uptake with modified oligonucleotides diluted to concentrations described in the tables below. After approximately 144 hours, cell proliferation was measured using the luminescent cell viability CellTiter-Glo® 2.0 Assay (Promega). Results are presented in the tables below as percent control of the amount of luminescence in samples treated with modified oligonucleotides relative to untreated control cells (% UTC).

SNU-1214 cells = experiment: Cell proliferation assay in SNU-1214 cells, CellTiter-Glo (Example 46); conditions: free uptake, approximately 144 hours
Description: Modified oligonucleotides described in the studies above were tested at various doses in laryngeal squamous cell carcinoma cell line […]. A control oligonucleotide 792169, described herein above, was also tested.
Cultured SNU-1214 cells at a density of 1000 cells/well were treated using free uptake with modified oligonucleotides diluted to concentrations described in the tables below. After approximately 144 hours, cell proliferation was measured using the luminescent cell viability CellTiter-Glo® 2.0 Assay (Promega). Results are presented in the tables below as percent control of the amount of luminescence in samples treated with modified oligonucleotides relative to untreated control cells (% UTC).

Yap1 mRNA [1] = experiment: Yap1 mRNA in BICR-22 cells, RNA analysis (Example 35); conditions: free uptake, approximately 48 hours
Description: Modified oligonucleotides described in the studies above were tested at various doses in tongue squamous carcinoma (lymph node metastasis) cell line BICR-22. A control oligonucleotide 792169, described herein above, was also tested.
Cultured BICR-22 cells at a density of 5000 cells per well were treated using free uptake with modified oligonucleotides diluted to concentrations described in the tables below. After approximately 48 hours, Yap1 mRNA levels were measured as previously described using the Human Yap1 primer-probe set RTS4814. Yap1 mRNA levels were normalized to actin-beta content, as measured by primer probe set RTS5002. Results are presented in the tables below as percent control of the amount of Yap1 mRNA relative to untreated control cells (% UTC).

Yap1 mRNA [2] = experiment: Yap1 mRNA in CAL27 cells, RNA analysis (Example 37); conditions: free uptake, approximately 48 hours
Description: Modified oligonucleotides described in the studies above were tested at various doses in tongue squamous cell carcinoma line CAL27. A control oligonucleotide 792169, described herein above, was also tested.
Cultured CAL27 cells at a density of 5000 cells per well were treated using free uptake with modified oligonucleotides diluted to concentrations described in the tables below. After approximately 48 hours, Yap1 mRNA levels were measured as previously described using the Human Yap1 primer-probe set RTS4814. Yap1 mRNA levels were normalized to actin-beta content, as measured by primer probe set RTS5002. Results are presented in the tables below as percent control of the amount of Yap1 mRNA relative to untreated control cells (% UTC).

Yap1 mRNA [3] = experiment: Yap1 mRNA in SNU-1076 cells, RNA analysis (Example 45); conditions: free uptake, approximately 48 hours
Description: Modified oligonucleotides described in the studies above were tested at various doses in upper aerodigestive tract/laryngeal squamous cell carcinoma line SNU-1076. A control oligonucleotide 792169, described herein above, was also tested.
Cultured SNU-1076 cells at a density of 5000 cells per well were treated using free uptake with modified oligonucleotides diluted to concentrations described in the tables below. After approximately 48 hours, Yap1 mRNA levels were measured as previously described using the Human Yap1 primer-probe set RTS4814. Yap1 mRNA levels were normalized to actin-beta content, as measured by primer probe set RTS5002. Results are presented in the tables below as percent control of the amount of Yap1 mRNA relative to untreated control cells (% UTC).

Yap1 mRNA [4] = experiment: Yap1 mRNA in SCC-9 cells, RNA analysis (Example 40); conditions: free uptake, approximately 48 hours
Description: Modified oligonucleotides described in the studies above were tested at various doses in tongue squamous cell carcinoma cell line SCC-9. A control oligonucleotide 792169, described herein above, was also tested.
Cultured SCC-9 cells at a density of 5000 cells per well were treated using free uptake with modified oligonucleotides diluted to concentrations described in the tables below. After approximately 48 hours, Yap1 mRNA levels were measured as previously described using the Human Yap1 primer-probe set RTS4814. Yap1 mRNA levels were normalized to actin-beta content, as measured by primer probe set RTS5002. Results are presented in the tables below as percent control of the amount of Yap1 mRNA relative to untreated control cells (% UTC).

Yap1 mRNA [5] = experiment: Yap1 mRNA in SCC-4 cells, RNA analysis (Example 39); conditions: free uptake, approximately 48 hours
Description: Modified oligonucleotides described in the studies above were tested at various doses in tongue squamous cell carcinoma cell line SCC 4. A control oligonucleotide 792169, described herein above, was also tested.
Cultured SCC-4 cells at a density of 5000 cells per well were treated using free uptake with modified oligonucleotides diluted to concentrations described in the tables below. After approximately 48 hours, Yap1 mRNA levels were measured as previously described using the Human Yap1 primer-probe set RTS4814. Yap1 mRNA levels were normalized to actin-beta content, as measured by primer probe set RTS5002. Results are presented in the tables below as percent control of the amount of Yap1 mRNA relative to untreated control cells (% UTC).

Yap1 mRNA [6] = experiment: Yap1 mRNA in SNU-1066 cells, RNA analysis (Example 44); conditions: free uptake, approximately 48 hours
Description: as §1
Cultured SNU-1066 cells at a density of 5000 cells per well were treated using free uptake with modified oligonucleotides diluted to concentrations described in the tables below. After approximately 48 hours, Yap1 mRNA levels were measured as previously described using the Human Yap1 primer-probe set RTS4814. Yap1 mRNA levels were normalized to actin-beta content, as measured by primer probe set RTS5002. Results are presented in the tables below as percent control of the amount of Yap1 mRNA relative to untreated control cells (% UTC).

| Substance | Antiproliferative effect (cell proliferation, luminescence) (SNU-1066 cells; 0.04 μM) [% UTC] | Antiproliferative effect (cell proliferation, luminescence) (SNU-1066 cells; 0.2 μM) [% UTC] | Antiproliferative effect (cell proliferation, luminescence) (SNU-1066 cells; 1 μM) [% UTC] | Antiproliferative effect (cell proliferation, luminescence) (SNU-1066 cells; 5 μM) [% UTC] | Antiproliferative effect (cell proliferation, luminescence) (SNU-1214 cells; 0.04 μM) [% UTC] | Antiproliferative effect (cell proliferation, luminescence) (SNU-1214 cells; 0.2 μM) [% UTC] | Antiproliferative effect (cell proliferation, luminescence) (SNU-1214 cells; 1 μM) [% UTC] | Antiproliferative effect (cell proliferation, luminescence) (SNU-1214 cells; 5 μM) [% UTC] | human Yap1 mRNA expression (Yap1 mRNA [1]; 0.04 μM) [% UTC] | human Yap1 mRNA expression (Yap1 mRNA [1]; 0.2 μM) [% UTC] | human Yap1 mRNA expression (Yap1 mRNA [1]; 1 μM) [% UTC] | human Yap1 mRNA expression (Yap1 mRNA [1]; 5 μM) [% UTC] | human Yap1 mRNA expression (Yap1 mRNA [2]; 0.08 μM) [% UTC] | human Yap1 mRNA expression (Yap1 mRNA [2]; 0.4 μM) [% UTC] | human Yap1 mRNA expression (Yap1 mRNA [2]; 2 μM) [% UTC] | human Yap1 mRNA expression (Yap1 mRNA [2]; 10 μM) [% UTC] | human Yap1 mRNA expression (Yap1 mRNA [3]; 0.04 μM) [% UTC] | human Yap1 mRNA expression (Yap1 mRNA [3]; 0.2 μM) [% UTC] | human Yap1 mRNA expression (Yap1 mRNA [3]; 1 μM) [% UTC] | human Yap1 mRNA expression (Yap1 mRNA [3]; 5 μM) [% UTC] | also measured |
| --- | --- | --- | --- | --- | --- | --- | --- | --- | --- | --- | --- | --- | --- | --- | --- | --- | --- | --- | --- | --- | --- |
| 715487 (kA*kT*kT*dA*d[5mC]*dT*dT*d[5mC]*dA*dT*dA*dG*d[5mC]*kT*kT*kA) [compound 715487] | 97 | 86 | 72 | 47 | 93 | 69 | 52 | 38 | 82 | 45 | 23 | 13 | 35 | 23 | 5 | 3 | 89 | 67 | 31 | 11 | human Yap1 mRNA expression (Yap1 mRNA [4]; 0.04 μM): 74 % UTC; human Yap1 mRNA expression (Yap1 mRNA [4]; 0.2 μM): 44 % UTC; human Yap1 mRNA expression (Yap1 mRNA [4]; 1 μM): 21 % UTC; human Yap1 mRNA expression (Yap1 mRNA [4]; 5 μM): 11 % UTC; human Yap1 mRNA expression (Yap1 mRNA [5]; 0.04 μM): 81 % UTC; human Yap1 mRNA expression (Yap1 mRNA [5]; 0.2 μM): 46 % UTC; human Yap1 mRNA expression (Yap1 mRNA [5]; 1 μM): 23 % UTC; human Yap1 mRNA expression (Yap1 mRNA [5]; 5 μM): 13 % UTC; human Yap1 mRNA expression (Yap1 mRNA [6]; 0.04 μM): 77 % UTC; human Yap1 mRNA expression (Yap1 mRNA [6]; 0.2 μM): 49 % UTC; human Yap1 mRNA expression (Yap1 mRNA [6]; 1 μM): 22 % UTC; human Yap1 mRNA expression (Yap1 mRNA [6]; 5 μM): 7 % UTC |
| 1198440 (AAGTGTATGTCAGAAG; cEt, 2'-MOE, 5-methylcytosine, phosphorothioate modifications, further chemistry not given here) [compound 1198440] | 89 | 66 | 58 | 43 | 84 | 72 | 53 | 49 | 44 | 14 | 4 | 4 | 23 | 6 | 4 | 4 | 83 | 43 | 11 | 3 | human Yap1 mRNA expression (Yap1 mRNA [4]; 0.04 μM): 53 % UTC; human Yap1 mRNA expression (Yap1 mRNA [4]; 0.2 μM): 18 % UTC; human Yap1 mRNA expression (Yap1 mRNA [4]; 1 μM): 6 % UTC; human Yap1 mRNA expression (Yap1 mRNA [4]; 5 μM): 2 % UTC; human Yap1 mRNA expression (Yap1 mRNA [5]; 0.04 μM): 63 % UTC; human Yap1 mRNA expression (Yap1 mRNA [5]; 0.2 μM): 27 % UTC; human Yap1 mRNA expression (Yap1 mRNA [5]; 1 μM): 11 % UTC; human Yap1 mRNA expression (Yap1 mRNA [5]; 5 μM): 5 % UTC; human Yap1 mRNA expression (Yap1 mRNA [6]; 0.04 μM): 70 % UTC; human Yap1 mRNA expression (Yap1 mRNA [6]; 0.2 μM): 28 % UTC; human Yap1 mRNA expression (Yap1 mRNA [6]; 1 μM): 7 % UTC; human Yap1 mRNA expression (Yap1 mRNA [6]; 5 μM): 2 % UTC |
| CGCCGATAAGGTACAC (cEt gapmer, phosphorothioate backbone, further chemistry not given here) [ION 792169, reference compound] | 100 | 104 | 102 | 96 | 105 | 90 | 96 | 72 | 99 | 98 | 98 | 98 | 95 | 90 | 97 | 88 | 89 | 98 | 102 | 107 | human Yap1 mRNA expression (Yap1 mRNA [4]; 0.04 μM): 86 % UTC; human Yap1 mRNA expression (Yap1 mRNA [4]; 0.2 μM): 94 % UTC; human Yap1 mRNA expression (Yap1 mRNA [4]; 1 μM): 96 % UTC; human Yap1 mRNA expression (Yap1 mRNA [4]; 5 μM): 101 % UTC; human Yap1 mRNA expression (Yap1 mRNA [5]; 0.04 μM): 92 % UTC; human Yap1 mRNA expression (Yap1 mRNA [5]; 0.2 μM): 106 % UTC; human Yap1 mRNA expression (Yap1 mRNA [5]; 1 μM): 105 % UTC; human Yap1 mRNA expression (Yap1 mRNA [5]; 5 μM): 104 % UTC; human Yap1 mRNA expression (Yap1 mRNA [6]; 0.04 μM): 91 % UTC; human Yap1 mRNA expression (Yap1 mRNA [6]; 0.2 μM): 94 % UTC; human Yap1 mRNA expression (Yap1 mRNA [6]; 1 μM): 93 % UTC; human Yap1 mRNA expression (Yap1 mRNA [6]; 5 μM): 98 % UTC |
